According to article PMC2810346 (Journal of the American Chemical Society, 2010):
Values belong to the compound of their own block, whether it stands above or below them. Peptide text beside a SMILES is read from it.

How the values were obtained:
[1] = test system: HIF-1α induced transcription of VEGF gene in HeLa cells; conditions: ref [18]; cited from earlier work
[2] = target: GST-p300 (p300 CH1 domain) (Homo sapiens, UniProt Q09472); experiment: Isothermal titration microcalorimetry; assay type: binding; conditions: for affinity for GST-p300 (in words): isothermal titration microcalorimetry
GST-p300 (p300 CH1 domain), sequence (Q09472 331-417 limits assumed): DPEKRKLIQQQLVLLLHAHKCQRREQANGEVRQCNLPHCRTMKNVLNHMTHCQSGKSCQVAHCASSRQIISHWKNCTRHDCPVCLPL

[3] = test system: HIF-1α induced transcription of VEGF gene in HeLa cells; assay type: cell-based; conditions: qRT-PCR, hypoxic conditions (DFO), 12 and 24 h incubation
[4] = assay type: physicochemical; conditions: 10% trifluoroethanol in phosphate buffered saline (pH 6.3); for % helicity: circular dichroism, estimated from mean residue ellipticity at 222 nm
[5] = test system: GST-p300; CH1 domains of CBP (or p300); experiment: CD spectrum of GST-p300 / CH1 structural change on addition of compound; conditions: circular dichroism of GST-p300 with HBS 2 added
[6] = test system: cell density and population doubling; experiment: Cell viability assay; assay type: cell-based; conditions: monitored up to 72 h, 1 μM peptide, 200 nM chetomin

Structure (SMILES): CN1C(=O)[C@]2(Cc3cn([C@]45C[C@@]67SS[C@@](CO)(C(=O)N6[C@H]4Nc4ccccc45)N(C)C7=O)c4ccccc34)SS[C@@]1(CO)C(=O)N2C [chetomin]
inhibition of VEGF transcription, literature (in words) [1]: known potent inhibitor of VEGF transcription

affinity for GST-p300 (in words) [2]: submicromolar affinity
% helicity [4]: 40%
Structure (SMILES): C[C@H](NC(=O)[C@H](CC(N)=O)NC(=O)[C@H](Cc1ccc(O)cc1)NC(=O)[C@H](CCC(=O)O)NC(=O)[C@H](CS)NC(=O)[C@H](CC(=O)O)NC(=O)[C@H](C)N1C/C=C/CCC(=O)N[C@@H]([C@@H](C)O)C(=O)N[C@@H](C)C1=O)C(N)=O [compound 1]
inhibition of VEGF transcription (in words) [3]: did not show measurable inhibition of transcription

Structure (SMILES): C[C@H](NC(=O)[C@H](CC(N)=O)NC(=O)[C@H](Cc1ccc(O)cc1)NC(=O)[C@H](CCC(=O)O)NC(=O)[C@H](CS)NC(=O)[C@H](CC(=O)O)NC(=O)[C@H](C)N1C/C=C/CCC(=O)N[C@@H]([C@@H](C)O)C(=O)N[C@@H](C)C1=O)C(=O)N[C@@H](CCCNC(=N)N)C(N)=O [compound 2]
affinity for GST-p300 (in words) [2]: does not have a detrimental effect on the ability of HBS 2 to bind GST-p300
effect on CD spectrum of GST-p300 (in words) [5]: does not alter the CD spectrum of GST-p300
solution conformation by CD (in words) ([4]; listed as HBS 2): more helical than HBS 1
% helicity [4]: 53%
cytotoxicity (in words) [6]: does not display significant cytotoxicity

Kd [2]: 0.825 ± 0.05 µM
Structure (SMILES): CC(=O)N[C@H](C(=O)N[C@@H](C)C(=O)N[C@@H](C)C(=O)N[C@@H](CC(=O)O)C(=O)N[C@@H](CS)C(=O)N[C@@H](CCC(=O)O)C(=O)N[C@@H](Cc1ccc(O)cc1)C(=O)N[C@@H](CC(N)=O)C(=O)N[C@@H](C)C(=O)N[C@@H](CCCNC(=N)N)C(=O)O)[C@@H](C)O [compound 4] (Ac-TAADCEYNAR-OH)
